Structures can show the parent of a compound that is named as a salt.
target: T1, ZAP-70 (Homo sapiens, UniProt P43403); test: ZAP-70 kinobeads assay; assay type: binding; conditions: competition with immobilized aminopyrido-pyrimidine ligand 24 in cell lysate; ZAP-70 detected by dot blot
T1 construct: endogenous in cells; host or cells: cell lysate
T1 sequence (P43403 1-619): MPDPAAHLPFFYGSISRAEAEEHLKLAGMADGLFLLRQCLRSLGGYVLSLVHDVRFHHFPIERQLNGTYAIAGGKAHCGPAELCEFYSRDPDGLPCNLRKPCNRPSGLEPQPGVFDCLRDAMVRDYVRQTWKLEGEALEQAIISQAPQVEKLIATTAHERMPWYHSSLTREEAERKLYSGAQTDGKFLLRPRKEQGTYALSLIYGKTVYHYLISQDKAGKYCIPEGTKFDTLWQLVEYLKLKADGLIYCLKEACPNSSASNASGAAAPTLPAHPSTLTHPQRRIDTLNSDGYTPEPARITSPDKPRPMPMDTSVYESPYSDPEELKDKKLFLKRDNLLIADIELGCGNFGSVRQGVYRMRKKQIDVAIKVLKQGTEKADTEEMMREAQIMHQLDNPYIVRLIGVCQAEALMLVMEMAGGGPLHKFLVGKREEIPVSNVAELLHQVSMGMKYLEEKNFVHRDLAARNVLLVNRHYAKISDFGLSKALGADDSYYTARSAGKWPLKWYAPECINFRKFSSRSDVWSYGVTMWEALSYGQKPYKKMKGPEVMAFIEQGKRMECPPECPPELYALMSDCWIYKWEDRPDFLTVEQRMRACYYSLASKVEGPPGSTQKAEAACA
Experimental: The compounds of the present invention as described in the previous examples can be tested in the ZAP-70 kinobeads assay as described (EP-A 1862802 and WO-A 2007/137867). Briefly, test compounds (at various concentrations) and the affinity matrix with the immobilized aminopyrido-pyrimidine ligand 24 are added to cell lysate aliquots and allowed to bind to the proteins in the lysate sample. After the incubation time the beads with captured proteins are separated from the lysate. Bound proteins are then eluted and the presence ZAP-70 is detected and quantified using a specific antibody in a dot blot procedure and the Odyssey infrared detection system. Conventionally, ZAP-70 kinase activity can be measured using purified or recombinant enzyme in a solution-based assay with protein or peptide substrates (Isakov et al., 1996, J. Biol. Chem. 271(26), 15753-15761; Moffat et al., 1999, Bioorg. Med. Chem. Letters 9, 3351-3356).

Row | Structure (SMILES) | IC50
1 | CCN(c1ccccc1Nc1nc(Nc2cc(C)cc(C)c2)ncc1F)S(C)(=O)=O [Example 155, N-(2-(2-(3,5-dimethylphenylamino)-5-fluoropyrimidin-4-ylamino)phenyl)-N-ethylmethanesulfonamide] | 1000 to 10000 nM
2 | CCN(CC)C(=O)c1cccc(Nc2ncc(F)c(Nc3ccccc3NS(C)(=O)=O)n2)c1 [Example 81, N,N-diethyl-3-(5-fluoro-4-(2-(methylsulfonamido)phenylamino)pyrimidin-2-ylamino)benzamide] | 1000 to 10000 nM
3 | COc1cc(Nc2ncc(F)c(Nc3ccccc3NS(=O)(=O)c3ccccc3)n2)cc(OC)c1OC [Example 47, N-(2-(5-fluoro-2-(3,4,5-trimethoxyphenylamino)pyrimidin-4-ylamino)phenyl)benzenesulfonamide] | 1000 to 10000 nM
4 | CS(=O)(=O)Nc1ccccc1Nc1nc(Nc2cccc(N3CCCC3)c2)ncc1F [Example 85, N-(2-(5-fluoro-2-(3-(pyrrolidin-1-yl)phenylamino)pyrimidin-4-ylamino)phenyl)methanesulfonamide] | 1000 to 10000 nM
5 | Cc1n[nH]c(-c2ccc(Nc3ncc(F)c(Nc4ccccc4NS(C)(=O)=O)n3)cc2)n1 [Example 191, N-(2-(5-fluoro-2-(4-(3-methyl-1H-1,2,4-triazol-5-yl)phenylamino)pyrimidin-4-ylamino)phenyl)methanesulfonamide] | 1000 to 10000 nM
6 | CCN(c1ccccc1Nc1nc(Nc2ccc(OC)c(OC)c2)ncc1F)S(C)(=O)=O [Example 157, N-(2-(2-(3,4-dimethoxyphenylamino)-5-fluoropyrimidin-4-ylamino)phenyl)-N-ethylmethanesulfonamide] | 1000 to 10000 nM
7 | CSc1cccc(Nc2ncc(F)c(Nc3ccccc3NS(C)(=O)=O)n2)c1 [Example 15, N-(2-(5-fluoro-2-(3-(methylthio)phenylamino)pyrimidin-4-ylamino)phenyl)methanesulfonamide] | 1000 to 10000 nM
8 | CN1C(=O)COc2ccc(Nc3ncc(F)c(Nc4ccccc4NS(C)(=O)=O)n3)cc21 [Example 20, N-(2-(5-fluoro-2-(4-methyl-3-oxo-3,4-dihydro-2H-benzo[b][1,4]oxazin-6-ylamino)pyrimidin-4-ylamino)phenyl)methanesulfonamide] | 1000 to 10000 nM
9 | CS(=O)(=O)Nc1ccccc1Nc1nc(Nc2cccc(OC(F)F)c2)ncc1F [Example 26, N-(2-(2-(3-(difluoromethoxy)phenylamino)-5-fluoropyrimidin-4-ylamino)phenyl)methanesulfonamide] | 1000 to 10000 nM
10 | Cc1cccc(Nc2nc(Nc3cccc(OC(C)C)c3)ncc2F)c1NS(C)(=O)=O [Example 121, N-(2-(5-fluoro-2-(3-isopropoxyphenylamino)pyrimidin-4-ylamino)-6-methylphenyl)methanesulfonamide] | 1000 to 10000 nM
11 | COc1cc(Nc2ncc([N+](=O)[O-])c(Nc3ccccc3NS(C)(=O)=O)n2)cc(OC)c1OC [Example 68, N-(2-(5-nitro-2-(3,4,5-trimethoxyphenylamino)pyrimidin-4-ylamino)phenyl)methanesulfonamide] | 1000 to 10000 nM
12 | Cc1ccc(C)n1-c1cccc(Nc2ncc(F)c(Nc3ccccc3NS(C)(=O)=O)n2)c1 [Example 202, N-(2-(2-(3-(2,5-dimethyl-1H-pyrrol-1-yl)phenylamino)-5-fluoropyrimidin-4-ylamino)phenyl)methanesulfonamide] | 1000 to 10000 nM
13 | CS(=O)(=O)Nc1ccccc1Nc1nc(Nc2ccc(C#N)cc2)ncc1F [Example 196, N-(2-(2-(4-cyanophenylamino)-5-fluoropyrimidin-4-ylamino)phenyl)methanesulfonamide] | 1000 to 10000 nM
14 | CCN(c1ccccc1Nc1nc(Nc2ccc(OC)cc2)ncc1F)S(C)(=O)=O [Example 156, N-ethyl-N-(2-(5-fluoro-2-(4-methoxyphenylamino)pyrimidin-4-ylamino)phenyl)methanesulfonamide] | 100 to 1000 nM
15 | CS(=O)(=O)Nc1ccccc1Nc1nc(Nc2cccc(-c3cnco3)c2)ncc1F [Example 193, N-(2-(5-fluoro-2-(3-(oxazol-5-yl)phenylamino)pyrimidin-4-ylamino)phenyl)methanesulfonamide] | 100 to 1000 nM
16 | CCN(c1ccccc1Nc1nc(Nc2ccc(OCCN3CCOCC3)cc2)ncc1F)S(C)(=O)=O [Example 159, N-ethyl-N-(2-(5-fluoro-2-(4-(2-morpholinoethoxy)phenylamino)pyrimidin-4-ylamino)phenyl)methanesulfonamide] | 100 to 1000 nM
17 | CS(=O)(=O)Nc1ccccc1Nc1nc(Nc2cccc(-n3cccn3)c2)ncc1F [Example 17, N-(2-(2-(3-(1H-pyrazol-1-yl)phenylamino)-5-fluoropyrimidin-4-ylamino)phenyl)methanesulfonamide] | 1000 to 10000 nM
18 | CN(C)C(=O)c1cccc(Nc2ncc(F)c(Nc3ccccc3NS(C)(=O)=O)n2)c1 [Example 84, 3-(5-fluoro-4-(2-(methylsulfonamido)phenylamino)pyrimidin-2-ylamino)-N,N-dimethylbenzamide] | 100 to 1000 nM
19 | CS(=O)(=O)Nc1ccccc1Nc1nc(Nc2cccc(OCC(=O)O)c2)ncc1Cl [Example 149, 2-(3-(5-chloro-4-(2-(methylsulfonamido)phenylamino)pyrimidin-2-ylamino)phenoxy)acetic acid hydrochloride] | 100 to 1000 nM

More lines, now with the values ahead:

Row | IC50 | Structure (SMILES)
20 | 100 to 1000 nM | CS(=O)(=O)Nc1ccccc1Nc1nc(Nc2ccc(-n3cnnn3)cc2)ncc1Cl [Example 214, N-(2-(2-(4-(1H-tetrazol-1-yl)phenylamino)-5-chloropyrimidin-4-ylamino)phenyl)methanesulfonamide]
21 | 100 to 1000 nM | COCCOc1cccc(Nc2ncc(F)c(Nc3cccc(C)c3NS(C)(=O)=O)n2)c1 [Example 115, N-(2-(5-fluoro-2-(3-(2-methoxyethoxy)phenylamino)pyrimidin-4-ylamino)-6-methylphenyl)methanesulfonamide]
22 | 100 to 1000 nM | CC(C)OC(=O)COc1ccc(Nc2ncc(Cl)c(Nc3ccccc3NS(C)(=O)=O)n2)cc1 [Example 143, Isopropyl 2-(4-(5-chloro-4-(2-(methylsulfonamido)phenylamino)pyrimidin-2-ylamino)-phenoxy)acetate hydrochloride]
23 | 100 to 1000 nM | COc1cc(Nc2ncc(F)c(Nc3cccc(C)c3N(C)S(C)(=O)=O)n2)cc(OC)c1OC [Example 181, N-(2-(5-fluoro-2-(3,4,5-trimethoxyphenylamino)pyrimidin-4-ylamino)-6-methylphenyl)-N-methylmethanesulfonamide]
24 | 100 to 1000 nM | CS(=O)(=O)Nc1ccccc1Nc1nc(Nc2cccc(C#N)c2)ncc1Cl [Example 205, N-(2-(5-chloro-2-(3-cyanophenylamino)pyrimidin-4-ylamino)phenyl)methanesulfonamide]
25 | < 100 nM | COc1ccc(Nc2nc(Nc3ccc(OC)c(OC)c3)ncc2F)c(NS(C)(=O)=O)c1 [Example 180, N-(2-(2-(3,4-dimethoxyphenylamino)-5-fluoropyrimidin-4-ylamino)-5-methoxyphenyl)methanesulfonamide]
26 | < 100 nM | COc1ccc(Nc2nc(Nc3ccc(OC)c(OC)c3)ncc2Cl)c(NS(C)(=O)=O)c1 [Example 153, N-(2-(5-chloro-2-(3,4-dimethoxyphenylamino)pyrimidin-4-ylamino)-5-methoxyphenyl)methanesulfonamide]
27 | 100 to 1000 nM | CS(=O)(=O)Nc1ccccc1Nc1nc(Nc2ccc(-n3cccn3)cc2)ncc1Cl [Example 207, N-(2-(2-(4-(1H-pyrazol-1-yl)phenylamino)-5-chloropyrimidin-4-ylamino)phenyl)methanesulfonamide]

From patent US20110098288A1, “SULFONAMIDES AS ZAP-70 INHIBITORS” (priority 2008, published 2011)
